# From patent US7906486B2, “Method of treating or preventing tissue deterioration, injury or damage due to disease of mucosa” (SciClone Pharmaceuticals, Inc., priority 2007, dated 2011)
# “And” between values parts separate entries of the source, which are not always exact repeats. Identical values can stand only once.
# How the values were obtained:
# [1] = test system: immunization with sheep red blood cells; conditions: in vivo; cited from earlier work
# [2] = test system: oral mucositis induced by fractionated radiation (eight doses of 7.5 Gy, left buccal cheek pouch); assay: Oral mucositis induced by fractionated radiation in hamsters, mucositis scoring (Example 3, SCI-03); type: in vivo, Syrian Golden Hamsters; set-up: key: 0: Pouch completely healthy. No erythema or vasodilation.; 1: Light to severe erythema and vasodilation. No erosion of mucosa.; 2: Severe erythema and vasodilation. Erosion of superficial aspects of mucosa leaving denuded areas. Decreased stippling of mucosa.; 3: Formation of off-white ulcers in one or more places. Ulcers may have a yellow/gray due to pseudomembrane. Cumulative size of ulcers should equal about ¼ of the pouch. Severe erythema and vasodilation.; 4: Cumulative seize of ulcers should equal about ½ of the pouch. Loss of pliability. Severe erythema and vasodilation.; 5: Virtually all of pouch is ulcerated. Loss of pliability (pouch can only partially be extracted from mouth)
# Source text: The fractionated radiation model in hamsters, developed by the Principal Investigator, has proven to be an accurate, efficient and cost-effective technique to provide a preliminary evaluation of anti-mucositis compounds. In this model, hamsters receive 8 doses of 7.5 Gy to the left cheek pouch on days 0, 1, 2, 3, […], rather than the single dose of 40 Gy on day 0 that is used in acute radiation studies. The rationale for using this scheduling for the radiation is that it more closely resembles the clinical courses of radiotherapy given to cancer patients. The course of mucositis in this model is well defined and results in peak mucositis scores approximately 14-16 days following radiation. Mortality (generally from the side effects of anesthesia) in the fractionated radiation model is slightly higher than that seen in the acute radiation model and group sizes are increased (to 10 per group) to allow for this.
# (§1) Forty (40) male Syrian Golden Hamsters were given eight doses of radiation of 7.5 Gy each directed to their left buccal cheek pouch on days 0, 1, 2, 3, 6, 7, 8 and 9. This was accomplished by anesthetizing the animals and everting the left buccal pouch, while protecting the rest of the animal's bodies with a lead shield. Test materials were given by sub-cutaneous injection once daily as detailed in Table 9. Mucositis was evaluated clinically starting on day 7, and continuing on alternate days until day 35. Test articles were given as outlined Table 9, Groups 1 and 2 were dosed from Day −1 to Day 29, Group 3 was dosed on the days of radiation only, Group 4 was dosed on the days between Day −15 and Day 29 on which no radiation is given (Day −1, Day 4, Day 5 and Day 10 to Day 29).
# The effect on mucositis of each drug treatment compared to placebo was assessed according to the following parameters:
# On each evaluation day, the number of animals with a blinded mucositis score of ≧3 in each drug treatment group was compared to the control group. Differences were compared on a cumulative basis and statistical significance was determined by chi-square analysis. Efficacy, in this analysis, is defined by a significant reduction in the number of days that a group of animals had ulcerations (scores ≧3) when compared to the control group.
# For each evaluation day the scores of the control group were compared to those of the treated groups using non-parametric rank sum analysis. Treatment success was considered as a statistically significant lowering of scores in the treated group on 2 or more days from day 6 to day 28.
# as §1, with “daily at 8:00 am” for “daily”, “9. […]” for “9. Mucositis was evaluated clinically starting on day 7, and continuing on alternate days until day 35.”, “2 was” for “2 were”, “radiation only (days 0-3 and days 6-10),” for “radiation only,”, “Day −1” for “Day −15”, “Day 4 to” for “Day 4,”
# Radiation was generated with a Philips 160 kVp (kilovolt potential) (18.75-ma) X-ray source at a focal distance of 30 cm, with a 3.0 mm hardened Al filtration system. Irradiation was targeted to the left buccal pouch mucosa at a rate of 3.32 Gy/minute. […] Using this calibration, the energy received by each animal at each radiation dose was approximately 64.5 nC (nanoCoulombs) at each time point. Prior to irradiation, animals were anesthetized with an intraperitoneal injection of ketamine (160 mg/kg) and xylazine (8 mg/kg). The left buccal pouch was everted, fixed and isolated using a lead shield.
# The mucositis score, weight change and survival were measured throughout the study as described above. […]
smiles,measurement,setting,value
"N[C@H](CCC(=O)N[C@@H](Cc1c[nH]c2ccccc12)C(=O)O)C(=O)O [SCV-07, γ-D-glutamyl-L-tryptophan]",immunostimulatory effect in a model of immunization with sheep red blood cells,[1],strong immunostimulatory effect
same,Mucositis score,"[2]; Group 2, day 7, individual animals (two score lines each)",0
same,Mucositis score,"[2]; Group 2, day 9, individual animals (two score lines each)",1 (5×) and 0 (2×)
same,Mucositis score,"[2]; Group 2, day 11, individual animals (two score lines each)",1
same,Mucositis score,"[2]; Group 2, day 13, individual animals (two score lines each)",3
same,Mucositis score,"[2]; Group 2, day 15, individual animals (two score lines each)",3
same,Mucositis score,"[2]; Group 2, day 17, individual animals (two score lines each)",3
same,Mucositis score,"[2]; Group 2, day 21, individual animals (two score lines each)",3
same,Mucositis score,"[2]; Group 2, day 23, individual animals (two score lines each)",3
same,Mucositis score,"[2]; Group 2, day 25, individual animals (two score lines each)",3
same,Mucositis score,"[2]; Group 2, day 27, individual animals (two score lines each)",3
same,Mucositis score,"[2]; Group 2, day 31, individual animals (two score lines each)",0 (2×) and 1 (3×)
same,Mucositis score,"[2]; Group 2, day 33, individual animals (two score lines each)",1
same,Mucositis score,"[2]; Group 2, day 35, individual animals (two score lines each)",1 (3×) and 0 (4×)
